Target: Amyloid-beta precursor protein (Homo sapiens, UniProt P05067)
Assay: Displacement of [125I]IMPY from beta amyloid plaque in brain homogenates
Type: tissue-based

Sequence of Amyloid-beta precursor protein (P05067 whole entry): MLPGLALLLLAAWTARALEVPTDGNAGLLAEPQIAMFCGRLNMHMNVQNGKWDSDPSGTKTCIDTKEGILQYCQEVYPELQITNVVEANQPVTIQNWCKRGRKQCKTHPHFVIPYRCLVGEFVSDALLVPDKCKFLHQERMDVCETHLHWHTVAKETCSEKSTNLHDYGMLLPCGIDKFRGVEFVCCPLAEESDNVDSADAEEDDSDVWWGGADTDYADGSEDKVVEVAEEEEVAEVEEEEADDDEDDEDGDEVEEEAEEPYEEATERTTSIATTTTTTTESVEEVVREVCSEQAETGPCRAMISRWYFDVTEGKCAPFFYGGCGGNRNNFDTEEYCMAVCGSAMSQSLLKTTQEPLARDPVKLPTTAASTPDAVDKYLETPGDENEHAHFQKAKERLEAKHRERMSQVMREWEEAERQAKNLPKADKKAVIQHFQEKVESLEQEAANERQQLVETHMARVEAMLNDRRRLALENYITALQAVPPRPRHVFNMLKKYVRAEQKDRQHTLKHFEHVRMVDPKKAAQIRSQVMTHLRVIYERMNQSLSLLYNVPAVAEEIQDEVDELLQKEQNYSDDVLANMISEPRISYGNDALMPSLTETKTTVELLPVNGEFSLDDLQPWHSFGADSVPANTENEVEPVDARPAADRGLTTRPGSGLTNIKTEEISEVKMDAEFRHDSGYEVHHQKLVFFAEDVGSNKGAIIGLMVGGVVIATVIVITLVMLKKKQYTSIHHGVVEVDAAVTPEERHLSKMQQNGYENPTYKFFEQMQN

| Ki [nM] | SMILES |
| --- | --- |
| 6.1 | COc1ccc(-c2ccc(-c3ccc(O)cc3)s2)cc1 |
| 6.1 | Nc1ccc(-c2ccc(-c3ccc(N)cc3)s2)cc1 |
| 21.5 | COc1ccc(-c2ccc(-c3ccc(NCCF)cc3)s2)cc1 |
| 18.5 | COc1ccc(-c2ccc(-c3ccc([N+](=O)[O-])cc3)s2)cc1 |
| 108 | COc1ccc(-c2ccc(-c3ccc(OC)cc3)s2)cc1 |
| 500 | COc1ccc(-c2ccc(-c3ccc(N(C)C)cc3)s2)cc1 |
| 9.6 | Nc1ccc(-c2ccc(-c3ccc(O)cc3)s2)cc1 |
| 5.6 | COc1ccc(-c2ccc(-c3ccc(N)cc3)s2)cc1 |
| 625 | COc1ccccc1-c1ccc(-c2ccccc2OC)s1 |
| 3.9 | Oc1ccc(-c2ccc(-c3ccc(NCCF)cc3)s2)cc1 |
| > 1000 | CSc1ccc(-c2ccc(-c3ccc(SC)cc3)s2)cc1 |
| 185 | O=[N+]([O-])c1ccc(-c2ccc(-c3ccc([N+](=O)[O-])cc3)s2)cc1 |
| 4 | Oc1ccc(-c2ccc(-c3ccc(O)cc3)s2)cc1 |
| 7.5 | CN(C)c1ccc(-c2ccc(-c3ccc(O)cc3)s2)cc1 |
| 31.2 | CNc1ccc(-c2ccc(-c3ccc(O)cc3)s2)cc1 |
